Measured values from the NIST ThermoML archive (doi:10.1016/j.fluid.2015.10.027).
Numbers after ± are expanded uncertainties.

Conditions: 101.33 kPa, Liquid, Vibrating tube method

- mass density (300.83 K): 816.664 ± 0.24 kg/m3
- mass density (304.05 K): 813.975 ± 0.24 kg/m3
- mass density (306.72 K): 811.615 ± 0.24 kg/m3
- mass density (309.8 K): 809.031 ± 0.24 kg/m3
- mass density (313.97 K): 805.478 ± 0.24 kg/m3
Structure (SMILES): CC1CCCC(C)N1 (stereo not given) [2,6-dimethylpiperidine]
